Among the data in PubChem BioAssay (NCI) are GI50 and TGI values, retold here.

Some test systems named below: CCRF-CEM leukemia; DU-145 prostate; HCC-2998 colon; HT29 colon; IGROV1 ovarian; MOLT-4 leukemia; NCI-H23 lung; PC-3 prostate; SNB-75 CNS; UO-31 renal.
Holding throughout (test): NCI anticancer screen, dose series, 48 h

Values joined by “and” are separate entries in the source; they are usually repeats but may differ in a detail not shown here. Equal values may be shown once.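 Interpolation was linear, between the two tested concentrations surrounding the appropriate level; five concentrations were tested over 48 hours in 96-well plates. GI50 is the concentration that inhibits growth by half. At the TGI there is no net growth.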

`CNC(=O)Nc1ccc(-c2nc(N3CCOCC3)nc3c2cnn3C2CCOCC2)cc1`: the GI50 in the assay on CCRF-CEM leukemia was 0.276 µM; with DU-145 prostate it was 288 nM; with HCC-2998 colon it was 0.307 µM; in the assay with HT29 colon, 295 nM; in the assay with IGROV1 ovarian, 79.4 nM; in the assay on MOLT-4 leukemia it was 355 nM. The GI50 in the assay with NCI-H23 lung was 267 nM; in the assay with PC-3 prostate it was 80.9 nM; in the assay with SNB-75 CNS, 45 nM; in the assay on UO-31 renal, 43.5 nM. In addition, the TGI was greater than 100 µM in the assay with CCRF-CEM leukemia; greater than 100 µM with DU-145 prostate; greater than 100 µM in the assay on HCC-2998 colon; greater than 100 µM in the assay with HT29 colon; 0.493 µM with IGROV1 ovarian; greater than 26.8 µM in the assay with MOLT-4 leukemia. Further, the TGI in the assay with NCI-H23 lung is greater than 100 µM; in the assay on PC-3 prostate, 7.49 µM; in the assay on SNB-75 CNS it was 0.448 µM; in the assay with UO-31 renal, 0.544 µM.
Regarding `O=C(Nc1ccc(OC(F)(F)F)cc1)c1sccc1NCc1ccnc2ccccc12`, the GI50 in the assay with CCRF-CEM leukemia was 3.72 µM; in the assay with DU-145 prostate it was 3650 nM; in the assay on HCC-2998 colon, 4.82 µM; with HT29 colon it was 3360 nM; in the assay with IGROV1 ovarian it was 1680 nM; in the assay on MOLT-4 leukemia, 3090 nM. For the same molecule, the GI50 in the assay on NCI-H23 lung was 2180 nM; in the assay on PC-3 prostate it was 3740 nM; in the assay on SNB-75 CNS, 1880 nM; in the assay with UO-31 renal, 2340 nM. The TGI in the assay on CCRF-CEM leukemia is greater than 100 µM; in the assay with DU-145 prostate it was greater than 100 µM; with HCC-2998 colon it was greater than 100 µM; with HT29 colon, greater than 100 µM; in the assay on IGROV1 ovarian, 6.37 µM; with MOLT-4 leukemia, greater than 31.6 µM. Moreover, the TGI was 19.6 µM with NCI-H23 lung, greater than 83.3 µM in the assay on PC-3 prostate, 26.5 µM in the assay with SNB-75 CNS and 26.1 µM in the assay with UO-31 renal.
`CCc1nc(N)nc(N)c1-c1ccc([N+](=O)[O-])c(NCc2ccccc2)c1`: the TGI in the assay with CCRF-CEM leukemia amounted to 32.5 µM; with DU-145 prostate it was 31.5 µM; with HCC-2998 colon, 36.7 µM; with HT29 colon, 23.2 µM; in the assay with IGROV1 ovarian, 26.3 µM; in the assay on MOLT-4 leukemia it was 26.6 µM. Also, the TGI in the assay with NCI-H23 lung is greater than 60.6 µM; in the assay with PC-3 prostate it was 39.9 µM; with SNB-75 CNS, 35.4 µM; with UO-31 renal, 22.2 µM.
Turning to `N#CC(C#N)SCc1ccccc1`, the TGI with CCRF-CEM leukemia was greater than 87 µM; with DU-145 prostate it was 55.3 µM; in the assay with HCC-2998 colon, greater than 100 µM; with HT29 colon, 62.8 µM; in the assay on IGROV1 ovarian, greater than 100 µM; in the assay on MOLT-4 leukemia it was greater than 100 µM. Moreover, the TGI with NCI-H23 lung was 89.1 µM; with PC-3 prostate, greater than 100 µM; in the assay on SNB-75 CNS it was greater than 96 µM; with UO-31 renal, greater than 100 µM.
As to `COC1/C=C/OC2(C)Oc3c(C)c(O)c4c(c3C2=O)C(=O)C=C(NC(=O)/C(C)=C\C=C\C(C)C(OC=O)C(C)C(O)C(C)C(OC(C)=O)C1C)C4=O` (stereo not given), the TGI with CCRF-CEM leukemia amounted to 6.4 µM; with DU-145 prostate it was 33 µM; in the assay on HCC-2998 colon, 35.4 µM; with HT29 colon, 23.4 µM; in the assay with IGROV1 ovarian, 34.7 µM; in the assay with MOLT-4 leukemia, 10.8 µM. Also, the TGI amounted to 30.6 µM with NCI-H23 lung, 25.1 µM in the assay with PC-3 prostate, 41.1 µM in the assay on SNB-75 CNS and 29.6 µM with UO-31 renal.
Regarding `CN1CCCN(CCNc2nccc(-c3c(-c4cccc(O)c4)nc4sccn34)n2)S1(=O)=O`, the GI50 was 8.29 µM and 4.7 µM in the assay with CCRF-CEM leukemia; 6840 nM and 6320 nM in the assay with DU-145 prostate; 13.4 µM and 19.4 µM with HCC-2998 colon; 2320 nM and 2330 nM in the assay with HT29 colon; 3930 nM and 5330 nM in the assay on IGROV1 ovarian; 14500 nM and 10200 nM in the assay on MOLT-4 leukemia. Moreover, the GI50 in the assay on NCI-H23 lung was 11100 nM and 14400 nM; with PC-3 prostate it was 16300 nM and 14600 nM; with SNB-75 CNS, 1470 nM and 2190 nM; with UO-31 renal it was 5200 nM and 6460 nM. Besides, the TGI in the assay with CCRF-CEM leukemia was 75 µM and 46.6 µM; in the assay on DU-145 prostate, 46.9 µM and > 59.3 µM; with HCC-2998 colon, 34.5 µM and > 88.2 µM; in the assay with HT29 colon, 42.2 µM and > 100 µM; in the assay with IGROV1 ovarian, 16.6 µM and 43.6 µM; in the assay on MOLT-4 leukemia, 52.1 µM and 41.2 µM. In addition, the TGI in the assay on NCI-H23 lung was 37.8 µM and 72.9 µM; with PC-3 prostate, 75 µM and > 100 µM; with SNB-75 CNS, 75 µM and > 100 µM; with UO-31 renal it was 39 µM and > 87.2 µM.
Consider `CCOC(=O)c1c(NC(=O)c2ccc(C(C)C)cc2)sc2c(CN(C)C)c(O)ccc12`, for which the GI50 in the assay on CCRF-CEM leukemia was 2.33 µM; in the assay with DU-145 prostate it was 2200 nM; with HCC-2998 colon, 1.88 µM; in the assay on HT29 colon it was 3260 nM; with IGROV1 ovarian it was 2890 nM; in the assay on MOLT-4 leukemia it was 2050 nM. The GI50 in the assay with NCI-H23 lung is 3220 nM; in the assay with PC-3 prostate it was 2180 nM; in the assay with SNB-75 CNS it was 1470 nM; in the assay with UO-31 renal, 1460 nM. Further, the TGI in the assay on CCRF-CEM leukemia is 7.35 µM; in the assay with DU-145 prostate, 5.21 µM; in the assay with HCC-2998 colon, 3.51 µM; in the assay with HT29 colon, 14.1 µM; with IGROV1 ovarian, 8.69 µM; in the assay on MOLT-4 leukemia it was 4.92 µM. The TGI in the assay with NCI-H23 lung worked out at 13.3 µM; in the assay on PC-3 prostate it was 5.71 µM; in the assay with SNB-75 CNS, 3.39 µM; in the assay on UO-31 renal, 2.82 µM.
Take `C[n+]1cc2c3c(ccc2c2ccc4cc5c(cc4c21)OCO5)OCO3`: the GI50 was 0.217 µM with CCRF-CEM leukemia; 726 nM in the assay on DU-145 prostate; 1.47 µM in the assay on HCC-2998 colon; 507 nM in the assay on HT29 colon; 1180 nM in the assay with IGROV1 ovarian; 300 nM in the assay with MOLT-4 leukemia. Besides, the GI50 in the assay with NCI-H23 lung is 720 nM; in the assay with PC-3 prostate it was 668 nM; in the assay on SNB-75 CNS, 1010 nM; with UO-31 renal, 359 nM. The TGI with CCRF-CEM leukemia came out at 1.15 µM; with DU-145 prostate, 1.96 µM; with HCC-2998 colon, 2.92 µM; with HT29 colon it was 1.87 µM; in the assay with IGROV1 ovarian, 2.48 µM; with MOLT-4 leukemia, 0.697 µM. For the same molecule, the TGI with NCI-H23 lung was determined as 2.18 µM; in the assay with PC-3 prostate it was 2.08 µM; in the assay on SNB-75 CNS it was 2.17 µM; with UO-31 renal, 1.7 µM.
